The values below come from patent publication US20230416329A1, “A PEPTIDE WITH DISULFIDE BONDS AND INHIBITORY ACTIVITY AGAINST SERINE PROTEASES, DERIVED HYBRID PEPTIDES THEREOF, AND USES THEREOF” (INSTITUTE OF MATERIA MEDICA , CHINESE ACADEMY OF MEDICAL …, priority 2020, published 2023).

As usually defined, the Ki is a measure of affinity in units of concentration, obtained from inhibition or displacement. A word on the IC50: it is the concentration needed to halve the response being measured.

Structures are written as SMILES. Where two headings read alike, the source gives them in different places. Bridge positions count the residues as written; N and C are the ends. Peptide text beside a SMILES is read from it.

The target of the experiment is T1, bovine trypsin (Bos taurus, UniProt P00760).
T1 sequence (P00760 24-246): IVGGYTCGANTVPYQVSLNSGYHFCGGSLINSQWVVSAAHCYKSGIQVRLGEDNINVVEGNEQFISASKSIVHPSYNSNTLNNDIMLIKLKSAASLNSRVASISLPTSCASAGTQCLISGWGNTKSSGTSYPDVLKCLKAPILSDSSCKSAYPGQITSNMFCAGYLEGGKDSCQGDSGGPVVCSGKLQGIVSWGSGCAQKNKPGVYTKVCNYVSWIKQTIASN
The experiment is described as follows: Trypsin inhibitory activity of peptides (BApNA hydrolysis, OD405; IC50, Ki, residual activity). Format: biochemical. The note with it: for IC50: trypsin 50 nM, BApNA 1.22 mM, read-out: IC50. The protocol: The substrates N-succinyl-Ala-Ala-Pro-Phe-p-nitroaniline (AAPFpNA), Nα—Benzoyl-L-arginine-4-nitroaniline hydrochloride (BApNA) and N-succinyl-[…] (AAApNA) are used in competitive binding reaction to determine the inhibitory activities against α-chymotrypsin, bovine trypsin, and porcine pancreatic elastase, respectively. Experiments for α-chymotrypsin and bovine trypsin inhibition were measured in 20 mM CaCl2, 50 mM Tris-HCl buffer (pH 7.8), and that for porcine elastase inhibition was measured in 50 mM Tris-HCl buffer (pH 8.0). The concentration of the peptide was measured using optical density (OD) at 280 nm. The Michaelis constant (Km) of the enzyme hydrolysis substrate is calculated from the initial rate of substrate hydrolysis at 405 nm. The absorbance value of the substrate was measured at 405 nm after complete hydrolysis. All data were processed using nonlinear regression.
• (1) Added 200 μL of reaction buffer (20 mM CaCl2 and 50 mM Tris-HCl, pH 7.8) into the 96-well plate, and preheated at 37° C. for 15 min. Then added 5 μL of different concentrations of substrates (p-Nitroanilide, pNA, 0.5% in DMSO), and mixed by centrifugation at 500 rpm for 1 min. […] The experiment was performed in triplicate. The standard curve was obtained by plotting the OD405 nm value with pNA concentration. • (2) Added 190 μL of reaction buffer (20 mM CaCl2 and 50 mM Tris-HCl, pH 7.8) and 10 μL of 1 μM trypsin into the 96-well plate, and preheated at 37° C. for 15 min. Then added 5 μL of different concentrations of substrates (BApNA, 0.5% in DMSO) and mixed by centrifugation at 500 rpm for 1 min. […] The experiment was performed in triplicate. The corresponding curve was obtained by plotting the OD405 nm value with time. Divided the slope of the curve by the slope of the standard curve and the enzyme concentration to obtain the initial velocity V0 (mM/(min*mM protein). Plotted the initial velocity V0 with the concentration of substrate BApNA using Prism software, and the Michaelis constant Km value of trypsin hydrolyzing BApNA was obtained.
• (1) Added a total 190 μL of reaction buffer (20 mM CaCl2 and 50 mM Tris-HCl, pH 7.8) along with different concentrations of anti-trypsin peptides (BTs) into the pre-cooled 96-well plate, followed by preheating at 37° C., and spined down at 500 rpm for 5 min. Next added 10 μL of 1 μM trypsin, incubated at 37° C., and then spined down at 500 rpm for 10 min. Finally, added 5 μL of 50 mM BApNA, and mixed by centrifugation at 500 rpm for 1 min. The plate was incubated at 37° C. for 260 min, and the absorbance value at 405 nm was measured. The experiment was performed in triplicate. The blank control only contained the reaction buffer and the substrate as the minimum absorption value (Min OD405 nm). The negative control only contained the reaction buffer, the enzyme and the substrate as the maximum absorption value (Max OD405 nm). • (2) In the reaction system of 205 μL, the final concentrations of trypsin and BApNA were 50 nM and 1.22 mM, respectively. • (3) Data statistics
Residual activity of the enzyme (%)=(1−(Max OD405 nm−Sample OD405 nm)/(Max OD405 nm−Min OD405 nm))*100
Plotted the residual activity of the enzyme with […] to obtain the half inhibitory concentration (IC50) of BTs scaffold against trypsin. Then, substituted it into the formula Ki=IC50/(1+S/Km) (S, IC50 and Km were substrate concentration, half inhibitory concentration and Michaelis constant, respectively) to obtain the inhibition constant Ki of BTs scaffold against trypsin.

The mark [1] stands for this setting: read-out: inhibition constant (Ki) towards trypsin.

Consider `CC[C@H](C)[C@@H]1NC(=O)[C@@H]2CCCN2C(=O)[C@@H]2CCCN2C(=O)[C@H]([C@@H](C)CC)NC(=O)[C@H](CO)NC(=O)[C@H](CCCCN)NC(=O)[C@H]([C@@H](C)O)NC(=O)[C@H](C)NC(=O)[C@H](CCCNC(=N)N)NC(=O)CNC(=O)[C@@H](N)CSSC[C@@H](C(=O)N[C@@H](Cc2ccccc2)C(=O)O)NC1=O` [BT9] (H-CGRATKSIPPICF-OH; disulfide 1-12; C-terminus assumed), for which the “inhibitory activity against trypsin (in words)” value (from here on “inhibitory activity”) is recorded as “excellent trypsin inhibitory activities” and the concentration for half-maximal inhibition (IC50) was 70 nM. The Residual trypsin activity (peptide 0.00098 μM) came out at 100.4 ± 0.6%. Besides, the Residual trypsin activity (peptide 0.00488 μM) worked out at 99.0 ± 0.5%. Under “peptide 0.0098 μM”, the Residual trypsin activity came out at 94.3 ± 1.3%. For the same molecule, the Residual trypsin activity (peptide 0.02439 μM) turned out to be 84.2 ± 1.9%. The Residual trypsin activity (peptide 0.0488 μM) is on record as 68.1 ± 1.4%. The Residual trypsin activity (peptide 0.2439 μM) came out at 0.3 ± 0.0%. Further, the Residual trypsin activity (peptide 0.488 μM) is listed as −0.2 ± 0.1%. For the same molecule, where the note is “peptide 0.98 μM”, the Residual trypsin activity is on record as −0.4 ± 0.0%. Also, the inhibition constant Ki under setting [1] turned out to be 10 nM.
As to `CC[C@H](C)[C@@H]1NC(=O)[C@H](C)NC(=O)[C@@H]2CCCN2C(=O)[C@H]([C@@H](C)CC)NC(=O)[C@H](CO)NC(=O)[C@H](CCCCN)NC(=O)[C@H]([C@@H](C)O)NC(=O)[C@H](C)NC(=O)[C@H](CCCNC(=N)N)NC(=O)CNC(=O)[C@@H](N)CSSC[C@@H](C(=O)N[C@@H](Cc2ccccc2)C(=O)O)NC1=O` [BT10] (H-CGRATKSIPAICF-OH; disulfide 1-12), the “inhibitory activity” value is listed as “excellent trypsin inhibitory activities” and the IC50 was determined as 110 nM. For the setting “peptide 0.00098 μM”, the Residual trypsin activity is 99.7 ± 0.6%. For the setting “peptide 0.00488 μM”, the Residual trypsin activity was determined as 99.8 ± 1.8%. Moreover, the Residual trypsin activity (peptide 0.0098 μM) is 95.5 ± 1.1%. The Residual trypsin activity (peptide 0.098 μM) is recorded as 55.6 ± 2.3%. Besides, where the note is “peptide 0.195 μM”, the Residual trypsin activity was determined as 17.2 ± 3.4%. The Residual trypsin activity (peptide 0.488 μM) is 1.0 ± 0.1%. Besides, for the setting “peptide 0.7317 μM”, the Residual trypsin activity came out at 0.2 ± 0.1%. The Residual trypsin activity (peptide 0.98 μM) was −0.1 ± 0.1%. For the same molecule, the inhibition constant Ki under setting [1] was determined as 20 nM.
For `CC[C@H](C)[C@@H]1NC(=O)[C@@H]2CCCN2C(=O)[C@@H]2CCCN2C(=O)[C@H]([C@@H](C)CC)NC(=O)[C@H](CO)NC(=O)[C@H](CCCCN)NC(=O)[C@H]([C@@H](C)O)NC(=O)[C@H](C)NC(=O)[C@H](CCCNC(=N)N)NC(=O)CNC(=O)[C@@H](N)CSSC[C@@H](C(=O)O)NC(=O)[C@H](Cc2ccccc2)NC(=O)[C@H](C)NC1=O` [BT11] (H-CGRATKSIPPIAFC-OH; disulfide 1-14; N-terminus and C-terminus assumed), the “inhibitory activity” value was “still maintained good inhibitory activity against trypsin”. Moreover, the Residual trypsin activity (peptide 0.488 μM) came out at 100.2 ± 3.7%. Also, for the setting “peptide 0.7317 μM”, the Residual trypsin activity is 102.4 ± 4.2%. Besides, for the setting “peptide 0.98 μM”, the Residual trypsin activity amounted to 101.5 ± 5.1%. The Residual trypsin activity (peptide 1.561 μM) was 79.3 ± 1.0%. Further, the Residual trypsin activity (peptide 1.95 μM) came out at 75.8 ± 4.6%. Moreover, the Residual trypsin activity (peptide 2.93 μM) is listed as 6.2 ± 3.1%. Moreover, the Residual trypsin activity (peptide 3.90 μM) is listed as 4.1 ± 1.0%. The Residual trypsin activity (peptide 4.88 μM) is recorded as 1.4 ± 0.3%.
`CC[C@H](C)[C@@H]1NC(=O)[C@H](CO)NC(=O)[C@H](CCCCN)NC(=O)[C@H]([C@@H](C)O)NC(=O)[C@H](C)NC(=O)[C@H](CCCNC(=N)N)NC(=O)CNC(=O)[C@@H](N)CSSC[C@@H](C(=O)N[C@@H](Cc2ccc(O)cc2)C(=O)O)NC(=O)[C@H](CCC(N)=O)NC(=O)[C@@H]2CCCN2C(=O)[C@@H]2CCCN2C1=O` [BT12] (H-CGRATKSIPPQCY-OH; disulfide 1-12; N-terminus and C-terminus assumed): the “inhibitory activity” value is listed as “significant impact on their anti-trypsisn activities”. In addition, the Residual trypsin activity (peptide 0.0488 μM) was 100.5 ± 2.0%. Further, for the setting “peptide 0.2439 μM”, the Residual trypsin activity came out at 106.5 ± 3.4%. Further, the Residual trypsin activity (peptide 0.98 μM) is 107.9 ± 1.4%. For the same molecule, the Residual trypsin activity (peptide 3.90 μM) is reported as 68.3 ± 0.1%. Besides, the Residual trypsin activity (peptide 5.85 μM) stood at 24.0 ± 1.2%. Besides, the Residual trypsin activity (peptide 9.76 μM) was determined as 0.7 ± 0.1%. For the setting “peptide 14.63 μM”, the Residual trypsin activity was 0.3 ± 0.1%. Also, the Residual trypsin activity (peptide 19.51 μM) is on record as −0.2 ± 0.1%.
In the case of `CC[C@H](C)[C@@H]1NC(=O)[C@@H]2CCCN2C(=O)[C@@H]2CCCN2C(=O)[C@H]([C@@H](C)CC)NC(=O)[C@H](CO)NC(=O)[C@H](CCCCN)NC(=O)[C@H]([C@@H](C)O)NC(=O)[C@H](C)NC(=O)[C@H](CCCNC(=N)N)NC(=O)CNC(=O)[C@@H](N)CSSC[C@@H](C(=O)O)NC(=O)[C@H](C)NC1=O` [BT13] (H-CGRATKSIPPIAC-OH; disulfide 1-13; N-terminus and C-terminus assumed), the “inhibitory activity” value is “still maintained good inhibitory activity against trypsin”.
`CC(C)C[C@@H]1NC(=O)[C@H](CO)NC(=O)[C@H](CCCCN)NC(=O)[C@H]([C@@H](C)O)NC(=O)[C@H](C)NC(=O)[C@H](CCCNC(=N)N)NC(=O)CNC(=O)[C@@H](N)CSSC[C@@H](C(=O)N[C@@H](Cc2ccccc2)C(=O)O)NC(=O)[C@H](C)NC(=O)[C@@H]2CCCN2C(=O)[C@@H]2CCCN2C1=O` [BT14] (H-CGRATKSLPPACF-OH; disulfide 1-12; N-terminus and C-terminus assumed): the “inhibitory activity” value was “reduced their anti-trypsin activities”.
As to `CC[C@H](C)[C@@H]1NC(=O)[C@H](CO)NC(=O)[C@H](CCCNC(=N)N)NC(=O)[C@H]([C@@H](C)O)NC(=O)[C@H](C)NC(=O)[C@H](CCCNC(=N)N)NC(=O)CNC(=O)[C@@H](N)CSSC[C@@H](C(=O)N[C@@H](Cc2ccccc2)C(=O)O)NC(=O)[C@H](C)NC(=O)[C@@H]2CCCN2C(=O)[C@@H]2CCCN2C1=O` [BT15] (H-CGRATRSIPPACF-OH; disulfide 1-12; N-terminus and C-terminus assumed), the “inhibitory activity” value is given as “significant impact on their anti-trypsisn activities”.
As to `CC[C@H](C)[C@@H]1NC(=O)[C@H](C)NC(=O)[C@@H]2CCCN2C(=O)[C@H](CC(C)C)NC(=O)[C@H](CO)NC(=O)[C@H](CCCCN)NC(=O)[C@H]([C@@H](C)O)NC(=O)[C@H](C)NC(=O)[C@H](CCCNC(=N)N)NC(=O)CNC(=O)[C@@H](N)CSSC[C@@H](C(=O)N[C@@H](Cc2ccccc2)C(=O)O)NC1=O` [BT16] (H-CGRATKSLPAICF-OH; disulfide 1-12; C-terminus assumed), the “inhibitory activity” value was “reduced their anti-trypsin activities”. Under “Ki=IC50/(1+S/Km), Km 0.33 mM, read-out: Ki”, the Ki came to 190 nM. In addition, for the setting “listed as SEQ ID NO: 16”, the “inhibitory activity” value is given as “excellent trypsin inhibitory activities”. Also, the Residual trypsin activity (peptide 0.00488 μM) is reported as 95.4 ± 4.3%. For the same molecule, the Residual trypsin activity (peptide 0.0098 μM) amounted to 96.1 ± 0.6%. Moreover, the Residual trypsin activity (peptide 0.0195 μM) came out at 101.7 ± 1.2%. For the same molecule, the Residual trypsin activity (peptide 0.390 μM) is given as 88.4 ± 2.0%. Also, where the note is “peptide 0.780 μM”, the Residual trypsin activity was found to be 59.7 ± 3.2%. Further, the Residual trypsin activity (peptide 0.98 μM) was found to be 42.2 ± 3.3%. In addition, the Residual trypsin activity (peptide 2.439 μM) was found to be 0.8 ± 0.1%. The Residual trypsin activity (peptide 4.88 μM) was determined as 0.0 ± 0.2%.
